Legend:
[1] = target: PARP7 (Homo sapiens (Human), UniProt Q7Z3E1)
Experimental: (§5) Experimental Principle: The inhibitory effect of the test substance on the enzymatic activity of PARP1/7 is assessed by using an Enzyme-Linked Immunosorbent Assay (ELISA).
(§6) (1) Pre-coating: Add 100 μL of a PBS buffer (10 mM NaH2PO4, 10 mM Na2HPO4, 150 mM NaCl, pH 7.4) containing 20 g/mL of histone to each well of a 96-well plate, and incubate at 4° C. overnight.
(§7) (3) Add 5 μL of the test substance or solvent to each well.
(§8) (4) Add 20 μL of(PARP1 or PARP7 (50 ng/well), and incubate at 30° C. for 1 hour.
(§9) (5) Add 50 μL of streptavidin-HRP to the reaction mixture, and incubate at 30° C. for 30 minutes.
(§10) (6) Finally, add 100 μL of a citrate buffer containing H2O2 and luminol (0.1 M, pH 5.4), and measure the luminescent signal using a microplate reader (Molecular Devices SpectraMax M5).
(§11) (7) Calculate the inhibition rate of PARP1 or PARP7 enzyme activity as [(control group−treatment group)/control group]×10000. Fit the dose-response data with standard dilutions using Prism GraphPad software and calculate the concentration required to achieve 5000 inhibition of PARP1 or PARP7 enzyme activity (IC50).

[2] = target: PARP1 (Homo sapiens (Human), UniProt P09874)
Experimental: as §5, §6, §7, §8, §9, §10, §11

[3] = Metabolic stability in human liver microsomes; format: in vitro ADME; settings: pH 7.4, 1.00 μM compound, 0.5 mg/mL protein, read-out: intrinsic clearance, Clint
Experimental: (§1) 1. Experiment purpose: This study aims to determine the metabolic stability of selected compounds from the embodiments of the invention in liver microsomes of humans, dogs, monkeys, rats, and mice using the LC-MS/MS method.
(§2) Test compounds: The test drug is self-made from the example compounds of the present invention; Positive control compound RBN2397 purchased from Shanghai BioChemPartner Biotechnology Co., Ltd.
(§3) Liver microsomes obtained from Xenotech.
(§4) The incubation was carried out at 37° C. in a CO2 incubator. The reactions were terminated by adding 150 μL of cold acetonitrile at different time points (0, 5, 15, 30, and 45 minutes). The 96-well plate was shaken at 600 rpm for 10 minutes, followed by centrifugation at 6000 rpm for 15 minutes. The supernatant (80 μL) was mixed with 140 μL of pure water, and the remaining amount of the compound was determined using LC-MS/MS. The intrinsic clearance (Clint) was calculated using the formula Clint=k/liver microsomes protein concentration, where “k” is the linear regression slope of log compound remaining percentage against incubation time.

[4] = Metabolic stability in dog liver microsomes; format: in vitro ADME; settings: pH 7.4, 1.00 μM compound, 0.5 mg/mL protein, read-out: intrinsic clearance, Clint
Experimental: as §1, §2, §3, §4

[5] = Pharmacokinetic properties in SD rats after single intravenous injection and oral administration; format: in vivo; settings: SD male rats; for F: oral bioavailability; for AUC(0-inf) / Cmax / clearance / half-life: rat, plasma
Source text: 1. Test purpose: to determine the pharmacokinetic characteristics of some of the example compound of the present invention in SD rats after single intravenous injection(IV) and oral administration(PO) by LC-MS/MS method.
2. Test material: the test drug is self-made from the example compounds of the present invention; Positive control compound RBN2397 purchased from Shanghai BioChemPartner Biotechnology Co., Ltd. SD male rats were obtained from the Laboratory Animal Management Department of Shanghai Family Planning Research Institute. Animal production license number (SCXK (Shanghai) 2018-0006).
Preparation of 0.5% methyl cellulose: 5 g of methyl cellulose were weighed and dissolved in 1000 mL of purified water.
Preparation of oral formulation: A required amount of test compound was weighed and dissolved in 0.5% methyl cellulose solution to obtain a suspension or solution of 0.5 mg/mL or 1.0 mg/mL.
Preparation of intravenous injection formulation: A required amount of test compound was weighed, and dissolved in 0.5 mL of dimethyl sulfoxide to prepare a solution of 4 mg/mL. 0.25 mL of the above solution was added into 0.5 mL of polyethylene glycol 15 hydroxystearate (solutol) and 4.25 mL of physiological saline to obtain a solution of 0.2 mg/mL.
Administration: SD male rats were orally administered (PO) after fasting overnight, and fed 4 hours after administration.
Sample Collection: blood was collected through jugular vein or other suitable vein, and 0.2 mL of blood was collected at each time point. Samples were placed into tubes containing ethylenediamine tetraacetic acid dipotassium salt and kept on ice before centrifugation. Within 1 hour after blood collection, the blood samples were centrifuged at 2-8° C. and 6800 g for 6 minutes and stored at −80° C. The time point for blood collection was 0.083, 0.25, 0.5, 1, 2, 4, 8 and 24 hours after intravenous administration, and 0.25, 0.5, 1, 2, 4, 6, 8 and 24 hours after oral administration.
The intravenous dosage was 1 mg/kg, and the pharmacokinetic parameters for oral administration were standardized to a 1 mg/kg dose.

[6] = Metabolic stability in rat liver microsomes; format: in vitro ADME; settings: pH 7.4, 1.00 μM compound, 0.5 mg/mL protein, read-out: intrinsic clearance, Clint
Experimental: as §1, §2, §3, §4

[7] = test system: NCI-H1373 cells; assay: Inhibitory effect on the proliferation of NCI-H1373 cells (CellTiter-Glo); format: cell-based; settings: Homo sapiens, 144 h, 6 days treatment
Source text: 1. Experimental Principle: NCI-H1373 cells are a type of lung adenocarcinoma cells that overexpress PARP7.
2. Experimental Materials: NCI-H1373 cells were obtained from Nanjing Cobioer Biosciences Co., Ltd. CellTiter-Glo® (cell viability chemiluminescent assay reagent) was purchased from Promega (Catalog No. G7571). RPMI-1640 medium was obtained from ATCC (Catalog No. 30-2001). RPMI-1640 medium, penicillin/streptomycin antibiotics were purchased from WISENT. Fetal bovine serum was obtained from Biosera. The Nivo multimode reader was procured from PerkinElmer.
3. Experimental Method: NCI-H1373 cells were seeded in a white 96-well plate with 80 μL of cell suspension per well, containing 3000 NCI-H1373 cells. The cell plate was incubated overnight in a carbon dioxide (CO2) incubator.
The test compounds were serially diluted 5-fold to the 9th concentration, ranging from 2 mmol/L to 5.12 nmol/L, for a duplicate assay. 78 μL of culture medium was added to the intermediate plate, and then, according to the corresponding positions, 2 μL of each gradient-diluted compound was transferred to the intermediate plate. After thorough mixing, 20 μL of the compound solution was transferred to the cell plate. The compound concentration range in the cell plate ranged from 10 μmol/L to 0.0256 nmol/L. The cell plate was incubated in a CO2 incubator for 6 days.
Another cell plate was prepared, and the signal values were read on the day of dosing to obtain the maximum value referred to as Max in the following equation for data analysis. 25 μL of cell viability chemiluminescent assay reagent was added to each well of this cell plate, and it was incubated at room temperature for 10 minutes to stabilize the luminescent signal. Readings were taken using a multimode reader.
After 6 days of treatment, 25 μL of cell viability chemiluminescent assay reagent was added to each well of the cell plate, and it was incubated at room temperature for 10 minutes to stabilize the luminescent signal. Readings were taken using a multimode reader.
The IC50 value was determined by four-parameter curve fitting (obtained by using the “log(inhibitor) vs. response—Variable slope” model in GraphPad Prism).

[8] = Oral gavage, standardized to a 1 mg/kg dose

PARP7, sequence (Q7Z3E1 whole entry): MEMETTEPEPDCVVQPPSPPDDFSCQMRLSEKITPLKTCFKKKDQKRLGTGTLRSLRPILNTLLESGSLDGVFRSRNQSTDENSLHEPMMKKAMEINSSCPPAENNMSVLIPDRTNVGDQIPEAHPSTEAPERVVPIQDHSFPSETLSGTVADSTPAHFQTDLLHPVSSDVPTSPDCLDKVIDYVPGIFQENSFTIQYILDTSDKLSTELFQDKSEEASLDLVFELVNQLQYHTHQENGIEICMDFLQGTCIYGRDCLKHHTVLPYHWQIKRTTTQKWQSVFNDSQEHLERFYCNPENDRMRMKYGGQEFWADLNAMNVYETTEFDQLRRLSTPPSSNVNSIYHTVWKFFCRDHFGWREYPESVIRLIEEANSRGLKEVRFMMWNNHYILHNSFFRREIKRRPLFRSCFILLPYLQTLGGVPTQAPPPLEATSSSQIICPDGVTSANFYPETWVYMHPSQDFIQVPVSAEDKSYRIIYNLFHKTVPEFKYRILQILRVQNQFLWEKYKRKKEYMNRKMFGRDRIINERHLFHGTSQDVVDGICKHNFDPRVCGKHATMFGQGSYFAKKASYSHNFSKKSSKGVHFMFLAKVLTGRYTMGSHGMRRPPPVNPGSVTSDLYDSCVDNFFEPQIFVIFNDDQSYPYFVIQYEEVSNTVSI
PARP1, sequence (P09874 whole entry): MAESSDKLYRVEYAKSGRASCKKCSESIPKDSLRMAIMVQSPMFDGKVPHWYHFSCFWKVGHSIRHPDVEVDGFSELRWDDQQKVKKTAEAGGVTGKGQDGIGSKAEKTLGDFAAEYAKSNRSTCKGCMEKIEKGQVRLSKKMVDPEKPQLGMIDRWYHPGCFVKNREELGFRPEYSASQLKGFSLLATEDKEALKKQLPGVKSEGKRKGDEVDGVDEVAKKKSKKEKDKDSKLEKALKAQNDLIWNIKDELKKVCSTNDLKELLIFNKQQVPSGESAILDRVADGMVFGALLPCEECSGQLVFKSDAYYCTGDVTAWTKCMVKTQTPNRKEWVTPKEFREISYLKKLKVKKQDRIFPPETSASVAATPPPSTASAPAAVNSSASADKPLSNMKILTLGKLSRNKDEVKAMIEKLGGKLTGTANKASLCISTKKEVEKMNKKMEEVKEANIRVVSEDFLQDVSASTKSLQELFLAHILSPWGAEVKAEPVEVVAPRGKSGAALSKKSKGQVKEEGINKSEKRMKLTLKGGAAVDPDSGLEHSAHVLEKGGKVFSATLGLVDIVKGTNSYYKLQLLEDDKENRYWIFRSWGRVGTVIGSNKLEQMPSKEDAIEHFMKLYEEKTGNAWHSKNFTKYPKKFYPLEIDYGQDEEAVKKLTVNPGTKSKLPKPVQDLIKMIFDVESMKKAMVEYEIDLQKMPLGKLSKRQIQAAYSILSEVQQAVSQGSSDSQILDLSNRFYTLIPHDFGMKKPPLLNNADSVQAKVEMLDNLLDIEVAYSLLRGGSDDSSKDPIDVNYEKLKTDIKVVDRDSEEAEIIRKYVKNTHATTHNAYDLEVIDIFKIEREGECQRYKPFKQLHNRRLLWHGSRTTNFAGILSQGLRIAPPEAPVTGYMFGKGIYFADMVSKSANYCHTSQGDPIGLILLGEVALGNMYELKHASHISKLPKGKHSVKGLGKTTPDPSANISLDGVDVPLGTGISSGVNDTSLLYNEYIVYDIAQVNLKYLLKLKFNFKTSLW

| Structure (SMILES) | IC50 [1] [nM] | IC50 [2] [nM] | other results |
| --- | --- | --- | --- |
| O=C(CC[C@@H]1C[C@H](N2CCOCC2)CN1c1cc(C(F)(F)F)c(=O)[nH]n1)N1CCN(c2ncc(C(F)(F)F)cn2)CC1 [Compound 35] | 4.3 | 47 | – |
| O=C([C@@H]1C[C@H](Oc2ccccc2F)CN1c1cc(C(F)(F)F)c(=O)[nH]n1)N1CCN(c2ncc(C(F)(F)F)cn2)CC1 [Compound 67] | 43 | 12000 | – |
| C[C@@H](COCCC(=O)N1CCN(c2ncc(C(F)(F)F)cn2)CC1)Nc1cn[nH]c(=O)c1C(F)(F)F [RBN-2397, reference compound] | – | – | CLint scaled at 1 μM [3]: 88 mL/min/kg; CLint scaled at 1 μM [4]: 40.8 mL/min/kg; F ([5]; Oral gavage): 3.76%; AUC(0-inf) ([5]; Intravenous injection, 1 mg/kg): 288 ng·h/mL; Cmax ([5]; Intravenous injection, 1 mg/kg): 634 ng/mL; clearance ([5]; Intravenous injection, 1 mg/kg): 58.1 mL/min/kg; half-life ([5]; Intravenous injection, 1 mg/kg): 20.4 min; AUC(0-inf) [5, 8]: 11.5 ng·h/mL; Cmax [5, 8]: 5.55 ng/mL; CLint scaled at 1 μM [6]: 144 mL/min/kg |
| O=C(CC[C@@H]1C[C@H](N2CCCC2)CN1c1cc(C(F)(F)F)c(=O)[nH]n1)N1CCN(c2ncc(C(F)(F)F)cn2)CC1 [Compound 38] | 5 | 36 | – |
| CCO[C@@H]1C[C@@H](C(=O)N2CCN(c3ncc(C(F)(F)F)cn3)CC2)N(c2cc(C(F)(F)F)c(=O)[nH]n2)C1 [Compound 71] | – | – | IC50 [7]: 44.6 nM |
| O=C(CC[C@@H]1C[C@@H](c2ccccc2)CN1c1cc(C(F)(F)F)c(=O)[nH]n1)N1CCN(c2ncc(C(F)(F)F)cn2)CC1 [Compound 52] | – | – | IC50 [7]: 95.9 nM |
| CO[C@@H]1C[C@@H](C(=O)N2CCN(c3ncc(C(F)(F)F)cn3)CC2)N(c2cc(C(F)(F)F)c(=O)[nH]n2)C1 [Compound 70] | – | – | IC50 [7]: 58.2 nM |
| O=C(CC[C@@H]1C[C@H](Oc2ccccc2)CN1c1cc(C(F)(F)F)c(=O)[nH]n1)N1CCN(c2ncc(C(F)(F)F)cn2)CC1 [Compound 19] | – | – | F ([5]; Oral gavage): 14.34%; AUC(0-inf) ([5]; Intravenous injection, 1 mg/kg): 397 ng·h/mL; Cmax ([5]; Intravenous injection, 1 mg/kg): 477 ng/mL; clearance ([5]; Intravenous injection, 1 mg/kg): 42.2 mL/min/kg; half-life ([5]; Intravenous injection, 1 mg/kg): 40.8 min; AUC(0-inf) [5, 8]: 60.7 ng·h/mL; Cmax [5, 8]: 15.1 ng/mL |
| N[C@H]1C[C@@H](CCC(=O)N2CCN(c3ncc(C(F)(F)F)cn3)CC2)N(c2cc(C(F)(F)F)c(=O)[nH]n2)C1 [Compound 42] | 37 | 6 | – |
| CO[C@@H]1C[C@@H](CCC(=O)N2CCN(c3ncc(C(F)(F)F)cn3)CC2)N(c2cc(C(F)(F)F)c(=O)[nH]n2)C1 [Compound 44] | 7 | 18 | – |
| C[C@@H]1C[C@@H](CCC(=O)N2CCN(c3ncc(C(F)(F)F)cn3)CC2)N(c2cc(C(F)(F)F)c(=O)[nH]n2)C1 [Compound 29] | 25.6 | 18.3 | – |
| O=C(CC[C@@H]1CC(F)(F)CN1c1cc(C(F)(F)F)c(=O)[nH]n1)N1CCN(c2ncc(C(F)(F)F)cn2)CC1 [Compound 23] | 3.2 | 9.7 | – |
| CCO[C@H]1C[C@@H](CCC(=O)N2CCN(c3ncc(C(F)(F)F)cn3)CC2)N(c2cc(C(F)(F)F)c(=O)[nH]n2)C1 [Compound 36] | 3.8 | 14.4 | – |
| CO[C@H]1C[C@@H](CCC(=O)N2CCN(c3ncc(C(F)(F)F)cn3)CC2)N(c2cc(C(F)(F)F)c(=O)[nH]n2)C1 [Compound 34] | 3.3 | 13.6 | – |
| O=C(CC[C@@H]1CCCCN1c1cc(C(F)(F)F)c(=O)[nH]n1)N1CCN(c2ncc(C(F)(F)F)cn2)CC1 [Compound 22] | 4.6 | 31.6 | – |
| O=C(COC[C@@H]1CCCN1c1cc(C(F)(F)F)c(=O)[nH]n1)N1CCN(c2ncc(C(F)(F)F)cn2)CC1 [Compound 1] | – | – | F ([5]; Oral gavage): 21.97%; AUC(0-inf) ([5]; Intravenous injection, 1 mg/kg): 360 ng·h/mL; Cmax ([5]; Intravenous injection, 1 mg/kg): 720 ng/mL; clearance ([5]; Intravenous injection, 1 mg/kg): 46.9 mL/min/kg; half-life ([5]; Intravenous injection, 1 mg/kg): 34.8 min; AUC(0-inf) [5, 8]: 89.2 ng·h/mL; Cmax [5, 8]: 53.5 ng/mL; IC50 [7]: 38 nM |
| O=C(CC[C@@H]1C[C@H](F)CN1c1cc(C(F)(F)F)c(=O)[nH]n1)N1CCN(c2ncc(C(F)(F)F)cn2)CC1 [Compound 43] | 4 | 4 | – |
| O=C(CC[C@@H]1C[C@@H](O)CN1c1cc(C(F)(F)F)c(=O)[nH]n1)N1CCN(c2ncc(C(F)(F)F)cn2)CC1 [Compound 31] | 4.4 | 25.9 | – |
| C[C@H]1CC(CCC(=O)N2CCN(c3ncc(C(F)(F)F)cn3)CC2)N(c2cc(C(F)(F)F)c(=O)[nH]n2)C1 (stereo partly shown) [Compound 30] | 5.1 | 7.6 | – |
| O=C(CC[C@@H]1C[C@@H](Oc2cncnc2)CN1c1cc(C(F)(F)F)c(=O)[nH]n1)N1CCN(c2ncc(C(F)(F)F)cn2)CC1 [Compound 63] | – | – | IC50 [7]: 12.4 nM |
| O=C(CC[C@@H]1C[C@@H]2CCC[C@@H]2N1c1cc(C(F)(F)F)c(=O)[nH]n1)N1CCN(c2ncc(C(F)(F)F)cn2)CC1 [Compound 24] | 2.1 | 4.1 | – |
| O=C([C@@H]1C[C@H](Oc2ccccc2)CN1c1cc(C(F)(F)F)c(=O)[nH]n1)N1CCN(c2ncc(C(F)(F)F)cn2)CC1 [Compound 66] | 4 | 427 | – |
| O=C(CC[C@@H]1C[C@@H](Oc2cc(F)cc(F)c2)CN1c1cc(C(F)(F)F)c(=O)[nH]n1)N1CCN(c2ncc(C(F)(F)F)cn2)CC1 [Compound 51] | – | – | IC50 [7]: 69.2 nM |
| O=C(CC[C@H]1CCCN1c1cc(C(F)(F)F)c(=O)[nH]n1)N1CCN(c2ncc(C(F)(F)F)cn2)CC1 [Compound 18] | 2.2 | 2.5 | – |
| C[C@H]1CC[C@@H](CCC(=O)N2CCN(c3ncc(C(F)(F)F)cn3)CC2)N1c1cc(C(F)(F)F)c(=O)[nH]n1 [Compound 39] | 8 | 60 | – |
